Measured values from article PMC6693348 (Journal of medicinal chemistry, 2019).
Where two headings read alike, the source gives them in different places.

How the values were obtained:
[1] = tested on: epidermal growth factor receptor (EGFR); conditions: cited from earlier work
[2] = reference standard; cited from earlier work
EGFR protein ECD = EGFR protein ECD (Homo sapiens, UniProt P00533); test: Surface plasmon resonance with immobilized EGFR; assay type: binding; conditions: analyte 0–300 μM

Molecule: cyclo(K(N3)larllt)
- affinity for EGFR [1]: high affinity

Molecule: YHWY-GYTPQNVI [GE11]
- affinity for EGFR ([1]; both in vitro and in vivo): high affinity

Molecule: CN(C)c1ccc2nc3ccc(=[N+](C)C)cc-3sc2c1 [methylene blue]
- ΦF (fluorescence quantum yield) [2]: 0.035

Molecule: LARLLT [D4]
- affinity for EGFR ([1]; both in vitro and in vivo): high affinity

Molecule: 8-(3,5-Dimethoxyphenyl)-bis(3-p-isothio-cyanato phenyl)-BODIPY [BODIPY 10]
- specificity of binding to EGFR ECD (sensorgrams) (EGFR protein ECD): nonspecific binding or weak binding
